# Reference: US20260042802A1, “POLYPEPTIDE AND USE THEREOF” (priority 2024, published 2026)
# Where a SMILES comes first, the peptide text is derived from it. Bridges are numbered along the chain shown (N, C = ends).
# Tests used:
# Nav1.4 = target: T1, Nav1.4 (Homo sapiens, UniProt P35499); test: Whole-cell patch clamp on Nav1.4 overexpressing HEK293 cells; assay type: cell-based; details: 300 nM; −90 mV to +40 mV, 30 ms; n=5
# T1 construct: expressed in transfected cells; host or cells: HEK293
# Description: (§1) The effect of the polypeptide PPN-01 provided in Example 1 on voltage gated sodium channels is studied using the glass microelectrodes prepared as described above in Example 2 and employing the whole-cell membrane clamp techniques. The specific operations are as follows:
# (§2) 1. Firstly, internal electrode solution is placed on ice to defrost; after defrosting, an appropriate amount of internal electrode solution is drawn up with a 1 ml syringe; and after a homemade filler is applied to the tip end of the syringe, the air in the tube is emptied to fill the entire filler with internal electrode solution. Secondly, internal electrode solution in the filler is poured into the glass microelectrode from a rear part thereof by using the rear part perfusion method; internal electrode solution is slowly injected into the glass microelectrode; and the amount of perfusion is generally ⅓ to ½ of a length of the glass microelectrode (it is necessary to ensure that the silver wire of the electrode may fully contact internal electrode solution, but also to avoid electrode contamination resulting from too much internal electrode solution). […]
# Nav1.5 = target: T2, Nav1.5 (Homo sapiens, UniProt Q14524); test: Whole-cell patch clamp on Nav1.5 overexpressing HEK293 cells; assay type: cell-based; details: 300 nM; −90 mV to +40 mV, 30 ms; n=5
# T2 construct: expressed in transfected cells; host or cells: HEK293
# Description: as §1, §2
# [1] = test system: mouse acetate acid writhing model; test: Mouse acetate acid writhing model; assay type: in vivo, C57BL/6 mice
# Text: Seventy SPF-grade healthy C57BL/6 mice, half male and half female, weighing 22-25 g and 8-10 weeks old, are randomly selected. Seventy C57BL/6 mice are weighed and numbered in ascending order of body weight (No. S1-S70). The mice are randomly divided into seven groups in terms of the randomized numerical table method, which are the saline group and the experimental groups, among which the experimental groups include the PPN-01 group, the PPN-04 group, the PPN-06 group, the PPN-11 group, the PPN-12 group, and the PPN-16 group. The dosing concentration (i.e., the concentration of added polypeptides PPN-01, PPN-04, PPN-06, PPN-11, PPN-12, and PPN-16) in each group is 10 mg/kg, with 10 mice in each group.
# (§3) Saline Group: 10 healthy mice are routinely reared for one week; the saline is intraperitoneally injected once daily at a concentration of 10 ml/kg for 7 consecutive days; 15 min after the last injection is finished, 0.7% glacial acetic acid (10 ml/kg) is intraperitoneally injected; and each mouse is observed for their writhing behaviors.
# Experimental Group: 10 healthy mice are routinely reared for one week; 10 ml/kg of different polypeptides are injected intraperitoneally at a concentration of 0.1 mL/10 g once daily for 7 consecutive days; 15 min after the last injection is finished, 0.7% glacial acetic acid (10 ml/kg) is intraperitoneally injected; and each mouse is observed for their behaviors in writhing.
# During the above experiments, the time of first writhing (writhing latency) and the number of writhing in each mouse within 15 min are recorded immediately after the injection of glacial acetic acid solution in each group of mice. When behavioral responses such as inward concavity of the abdomen, extension of the torso and hind limbs, and elevation of the buttocks occur, it is considered to be a complete writhing response, and the results are shown in Table 3 and FIG. 6.
# Forty SPF-grade healthy C57BL/6 mice, half male and half female, weighing 22-25 g and 8-10 weeks old, are randomly selected. Forty C57BL/6 mice are weighed and numbered in ascending order of body weight (No. 1 to No. 40). The mice are randomly divided into five groups according to the randomized numerical table method, namely, the saline group, the low-concentration group (2.5 mg/kg), the medium-concentration group (10 mg/kg), the high-concentration group (40 mg/kg), and the diclofenac sodium group (30 mg/kg), with eight mice in each group.
# as §3, with “Group: 8” for “Group: 10”, “their behaviors in writhing. […]” for “their writhing behaviors.”
# [2] = 10 mg/kg i.p. once daily for 7 days, 0.7% glacial acetic acid 15 min after last injection, 10 mice
# T2 sequence (Q14524 whole entry): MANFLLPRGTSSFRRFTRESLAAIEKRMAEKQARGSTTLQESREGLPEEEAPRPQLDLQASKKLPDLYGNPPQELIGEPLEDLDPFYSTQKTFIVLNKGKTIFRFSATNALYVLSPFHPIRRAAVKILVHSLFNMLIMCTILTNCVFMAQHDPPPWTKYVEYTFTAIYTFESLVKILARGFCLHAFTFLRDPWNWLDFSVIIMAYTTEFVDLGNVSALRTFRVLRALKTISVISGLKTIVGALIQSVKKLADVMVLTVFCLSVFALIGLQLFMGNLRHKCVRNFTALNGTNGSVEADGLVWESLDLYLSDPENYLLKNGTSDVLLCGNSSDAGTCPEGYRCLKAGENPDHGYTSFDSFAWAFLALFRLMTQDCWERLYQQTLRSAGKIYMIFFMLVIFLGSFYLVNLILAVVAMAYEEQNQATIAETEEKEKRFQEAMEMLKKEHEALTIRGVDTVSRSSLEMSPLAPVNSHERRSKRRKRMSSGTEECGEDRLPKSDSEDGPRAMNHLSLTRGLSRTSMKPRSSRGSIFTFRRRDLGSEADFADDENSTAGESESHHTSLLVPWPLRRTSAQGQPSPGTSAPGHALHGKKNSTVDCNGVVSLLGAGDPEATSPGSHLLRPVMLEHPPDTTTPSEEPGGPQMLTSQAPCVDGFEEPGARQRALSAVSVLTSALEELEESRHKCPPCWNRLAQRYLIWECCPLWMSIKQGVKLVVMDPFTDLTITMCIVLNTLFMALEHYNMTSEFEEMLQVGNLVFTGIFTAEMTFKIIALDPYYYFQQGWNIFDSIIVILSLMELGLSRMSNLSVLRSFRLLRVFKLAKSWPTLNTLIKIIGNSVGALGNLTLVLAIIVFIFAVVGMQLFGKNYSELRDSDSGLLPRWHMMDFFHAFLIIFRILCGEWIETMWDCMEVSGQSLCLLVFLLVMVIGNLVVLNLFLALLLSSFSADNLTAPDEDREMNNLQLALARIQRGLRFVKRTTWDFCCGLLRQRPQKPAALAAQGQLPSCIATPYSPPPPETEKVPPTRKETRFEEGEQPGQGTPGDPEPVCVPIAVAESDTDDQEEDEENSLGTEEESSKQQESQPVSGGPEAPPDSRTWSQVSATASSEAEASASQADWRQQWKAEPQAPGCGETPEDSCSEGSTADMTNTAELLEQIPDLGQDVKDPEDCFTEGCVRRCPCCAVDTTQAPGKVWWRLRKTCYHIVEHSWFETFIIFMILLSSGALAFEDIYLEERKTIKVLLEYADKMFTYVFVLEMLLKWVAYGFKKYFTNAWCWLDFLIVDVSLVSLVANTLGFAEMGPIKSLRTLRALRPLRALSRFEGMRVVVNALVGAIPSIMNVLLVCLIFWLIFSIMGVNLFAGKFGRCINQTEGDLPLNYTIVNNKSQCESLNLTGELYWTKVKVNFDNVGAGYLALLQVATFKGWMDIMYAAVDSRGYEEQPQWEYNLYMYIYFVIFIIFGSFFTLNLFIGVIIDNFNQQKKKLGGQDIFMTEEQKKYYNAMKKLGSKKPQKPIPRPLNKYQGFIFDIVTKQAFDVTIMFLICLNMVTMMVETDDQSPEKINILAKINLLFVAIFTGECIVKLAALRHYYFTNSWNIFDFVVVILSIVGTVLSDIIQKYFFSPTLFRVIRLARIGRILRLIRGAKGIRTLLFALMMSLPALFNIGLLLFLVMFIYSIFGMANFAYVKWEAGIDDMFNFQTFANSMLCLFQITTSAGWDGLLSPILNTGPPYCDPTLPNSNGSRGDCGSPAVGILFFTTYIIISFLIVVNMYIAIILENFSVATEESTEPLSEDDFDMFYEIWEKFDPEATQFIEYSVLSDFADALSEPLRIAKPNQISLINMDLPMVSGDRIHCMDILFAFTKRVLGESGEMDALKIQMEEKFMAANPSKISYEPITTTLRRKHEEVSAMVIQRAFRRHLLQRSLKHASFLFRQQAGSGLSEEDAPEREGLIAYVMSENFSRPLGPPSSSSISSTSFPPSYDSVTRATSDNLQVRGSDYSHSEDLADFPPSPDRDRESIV
# T1 sequence (P35499 whole entry): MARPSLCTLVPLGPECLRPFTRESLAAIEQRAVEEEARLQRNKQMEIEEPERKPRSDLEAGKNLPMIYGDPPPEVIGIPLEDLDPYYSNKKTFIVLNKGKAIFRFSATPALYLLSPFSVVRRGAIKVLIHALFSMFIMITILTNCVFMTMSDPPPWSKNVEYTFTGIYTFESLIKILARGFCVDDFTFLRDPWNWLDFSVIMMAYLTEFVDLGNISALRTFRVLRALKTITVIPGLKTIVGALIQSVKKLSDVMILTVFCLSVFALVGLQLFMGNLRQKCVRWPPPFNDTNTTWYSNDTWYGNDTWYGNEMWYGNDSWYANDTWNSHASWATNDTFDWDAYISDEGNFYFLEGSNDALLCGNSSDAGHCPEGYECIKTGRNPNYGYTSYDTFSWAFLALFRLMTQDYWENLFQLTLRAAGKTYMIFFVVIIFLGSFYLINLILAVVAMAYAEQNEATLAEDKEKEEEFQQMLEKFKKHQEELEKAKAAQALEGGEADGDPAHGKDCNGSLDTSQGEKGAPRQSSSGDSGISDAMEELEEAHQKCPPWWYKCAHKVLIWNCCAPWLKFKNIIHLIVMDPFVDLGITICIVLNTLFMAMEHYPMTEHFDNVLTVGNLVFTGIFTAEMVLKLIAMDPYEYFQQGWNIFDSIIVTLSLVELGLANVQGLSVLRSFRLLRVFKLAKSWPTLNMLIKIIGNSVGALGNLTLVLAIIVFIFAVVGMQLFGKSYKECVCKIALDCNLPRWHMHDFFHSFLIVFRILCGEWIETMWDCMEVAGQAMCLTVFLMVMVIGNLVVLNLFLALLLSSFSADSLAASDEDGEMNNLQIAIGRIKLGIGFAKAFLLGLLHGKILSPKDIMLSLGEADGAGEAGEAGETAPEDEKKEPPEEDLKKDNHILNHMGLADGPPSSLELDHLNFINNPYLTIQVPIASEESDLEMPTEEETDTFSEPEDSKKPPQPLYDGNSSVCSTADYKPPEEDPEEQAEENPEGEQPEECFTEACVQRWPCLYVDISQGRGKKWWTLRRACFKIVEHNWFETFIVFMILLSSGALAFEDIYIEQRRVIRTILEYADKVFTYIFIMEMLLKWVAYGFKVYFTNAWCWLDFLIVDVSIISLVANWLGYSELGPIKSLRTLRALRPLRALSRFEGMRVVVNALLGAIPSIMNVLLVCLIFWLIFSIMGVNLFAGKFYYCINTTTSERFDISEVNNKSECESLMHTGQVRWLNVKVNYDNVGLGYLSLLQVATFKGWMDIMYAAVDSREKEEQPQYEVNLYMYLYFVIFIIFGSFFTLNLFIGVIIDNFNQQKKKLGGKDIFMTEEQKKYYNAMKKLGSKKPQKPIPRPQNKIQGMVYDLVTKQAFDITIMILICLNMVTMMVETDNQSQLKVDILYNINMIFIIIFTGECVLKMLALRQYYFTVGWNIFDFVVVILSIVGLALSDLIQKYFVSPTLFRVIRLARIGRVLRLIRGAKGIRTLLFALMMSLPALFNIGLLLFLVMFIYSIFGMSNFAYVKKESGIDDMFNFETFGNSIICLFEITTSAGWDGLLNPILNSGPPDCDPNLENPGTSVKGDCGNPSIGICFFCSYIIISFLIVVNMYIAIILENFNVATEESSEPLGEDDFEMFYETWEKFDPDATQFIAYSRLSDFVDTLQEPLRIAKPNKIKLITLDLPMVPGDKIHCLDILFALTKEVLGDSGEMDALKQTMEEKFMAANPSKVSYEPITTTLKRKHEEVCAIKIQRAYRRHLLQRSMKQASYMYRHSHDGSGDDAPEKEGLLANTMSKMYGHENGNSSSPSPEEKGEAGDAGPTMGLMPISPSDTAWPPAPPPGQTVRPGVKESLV
smiles,measurement,setting,value
"CSCC[C@@H]1NC(=O)CNC(=O)[C@H](CCC(=O)O)NC(=O)[C@@H]2CSSC[C@H](NC(=O)[C@H](Cc3ccc(O)cc3)NC(C)=O)C(=O)N[C@@H](CCC(N)=O)C(=O)N[C@@H](CCCCN)C(=O)N[C@@H](Cc3ccccc3)C(=O)N[C@@H](CC(C)C)C(=O)N[C@@H](C)C(=O)N3CCC[C@H]3C(=O)N[C@H]3CSSC[C@H](NC(=O)[C@H](CCC(=O)O)NC1=O)C(=O)N[C@@H](CCCCN)C(=O)N[C@@H](CC(C)C)C(=O)N[C@@H](Cc1c[nH]c4ccccc14)C(=O)N[C@H](C(=O)N[C@@H](CCCCN)C(=O)N[C@@H](CCCCN)C(=O)N[C@@H](CCCCN)C(=O)N[C@@H](CC(C)C)C(=O)N[C@@H](Cc1c[nH]c4ccccc14)C(N)=O)CSSC[C@H](NC(=O)[C@H](CCCCN)NC(=O)[C@H](CCCNC(=N)N)NC(=O)[C@H](CCC(=O)O)NC(=O)[C@H](CO)NC(=O)[C@H](CC(=O)O)NC3=O)C(=O)N2 [PPN-01] (Ac-YCQKFLAPCDSERKCCEGMECKLWCKKKLW-NH2; disulfide 2-16, 9-21, 15-25)",inhibition effect on Nav1.4 overexpressing HEK293 cells,Nav1.4,no significant inhibition effect
same,inhibition effect on Nav1.5 overexpressing HEK293 cells,Nav1.5,no significant inhibition effect
same,Number of writhing,[1]; [2],14.4 times/15 min
same,Time of first writhing,[1]; [2],4.15 min
same,analgesic effect on the mouse acetate acid writhing model,"[1]; 10 mg/kg i.p., 7 days, compared with saline group",certain analgesic effect
